From PubChem BioAssay (NCI)
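Where inhibition never reached the appropriate level, the endpoint shown equals the highest concentration tested. Otherwise, values were interpolated linearly from a five-concentration, 48-hour dose response in 96-well plates. TGI is the concentration that stops growth completely.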

Experiments:
Experiment in all cases: NCI-60 cell line screen, 48 h
[1] = system: MALME-3M melanoma
[2] = system: ACHN renal
[3] = system: HCT-116 colon
[4] = system: SR leukemia
[5] = system: K-562 leukemia
[6] = system: A549 NSCLC
[7] = system: NCI-H23 lung
[8] = system: HOP-62 NSCLC
[9] = system: HS 578T breast
[10] = system: RPMI-8226 leukemia
[11] = system: COLO 205 colon
[12] = system: HCT-15 colon
[13] = system: SNB-19 CNS
[14] = system: LOX IMVI melanoma
[15] = system: A498 renal
[16] = system: SF-268 CNS
[17] = system: U251 CNS
[18] = system: UACC-257 melanoma
[19] = system: OVCAR-8 ovarian
[20] = system: NCI/ADR-RES ovarian
[21] = system: KM12 colon
[22] = system: SK-OV-3 ovarian
[23] = system: BT-549 breast
[24] = system: DU-145 prostate
[25] = system: NCI-H460 lung
[26] = system: MDA-MB-231 breast
[27] = system: PC-3 prostate
[28] = system: MCF7 breast
[29] = system: HL-60(TB) leukemia
[30] = system: 786-0 renal
[31] = system: SF-539 CNS
[32] = system: UO-31 renal
[33] = system: SN12C renal
[34] = system: UACC-62 melanoma
[35] = system: MDA-MB-435
[36] = system: MOLT-4 leukemia
[37] = system: TK-10 renal
[38] = system: SK-MEL-5 melanoma
[39] = system: OVCAR-3 ovarian
[40] = system: EKVX NSCLC
[41] = system: CCRF-CEM leukemia
[42] = system: T-47D breast
[43] = system: MDA-N
[44] = system: IGROV1 ovarian
[45] = system: HT29 colon
[46] = system: HOP-92 NSCLC
[47] = system: CAKI-1 renal
[48] = system: NCI-H226 lung
[49] = system: SK-MEL-2 melanoma
[50] = system: OVCAR-5 ovarian
[51] = system: M14 melanoma
[52] = system: HCC-2998 colon
[53] = system: SF-295 CNS
[54] = system: NCI-H522 lung
[55] = system: RXF 393 renal
[56] = system: OVCAR-4 ovarian
[57] = system: SK-MEL-28 melanoma
[58] = system: SW-620 colon
[59] = system: SNB-75 CNS

C/C(=N\O)c1ccc(Nc2nc3ccccc3c3occc23)cc1
TGI [1]: 61.3 µM | TGI [2]: 47.7 µM | TGI [3]: 18 µM | TGI [4]: 5.07 µM | TGI [5]: 6.04 µM | TGI [6]: 34.8 µM | TGI [7]: 62.4 µM | TGI [8]: 27 µM | TGI [9]: 53.3 µM | TGI [10]: 6.62 µM | TGI [11]: 20 µM | TGI [12]: 7.77 µM | TGI [13]: > 100 µM | TGI [14]: 32.8 µM | TGI [15]: 37.8 µM | TGI [16]: 39.9 µM | TGI [17]: > 100 µM | TGI [18]: 48.2 µM | TGI [19]: 54.7 µM | TGI [20]: 47.8 µM | TGI [21]: 20.8 µM | TGI [22]: 57.4 µM | TGI [23]: 53.1 µM | TGI [24]: 35.6 µM | TGI [25]: 4.34 µM | TGI [26]: 8.22 µM | TGI [27]: 50.7 µM | TGI [28]: 14.8 µM | TGI [29]: 8.49 µM | TGI [30]: 9.93 µM | TGI [31]: 37.1 µM | TGI [32]: > 100 µM | TGI [33]: 56.3 µM | TGI [34]: 61 µM | TGI [35]: 44.9 µM | TGI [36]: 13.6 µM | TGI [37]: 7.63 µM | TGI [38]: 35.1 µM | TGI [39]: > 100 µM | TGI [40]: > 100 µM | TGI [41]: 27.7 µM | TGI [42]: 32.7 µM | TGI [43]: 96.6 µM | TGI [44]: 29.6 µM | TGI [45]: 2.68 µM | TGI [46]: 52.4 µM | TGI [47]: 7.28 µM | TGI [48]: 10.8 µM | TGI [49]: 51.5 µM | TGI [50]: > 100 µM | TGI [51]: 22.4 µM | TGI [52]: 20.8 µM | TGI [53]: 11.1 µM | TGI [54]: 9.47 µM

O=[N+]([O-])c1ccccc1S(=O)(=O)c1cc(O)cc2c1NCCC2
TGI [55]: 31.7 µM | TGI [1]: 37.9 µM | TGI [2]: 27.4 µM | TGI [3]: 20.9 µM | TGI [4]: 5.37 µM | TGI [5]: 7.54 µM | TGI [6]: > 85.9 µM | TGI [7]: 49 µM | TGI [8]: 40.3 µM | TGI [9]: > 86.7 µM | TGI [11]: 34.3 µM | TGI [12]: 44.4 µM | TGI [13]: 65.6 µM | TGI [14]: 38.4 µM | TGI [15]: 18.4 µM | TGI [16]: 42.6 µM | TGI [17]: 40.1 µM | TGI [18]: 26.8 µM | TGI [19]: 41.6 µM | TGI [20]: > 79.3 µM | TGI [21]: 34.3 µM | TGI [22]: > 31.6 µM | TGI [23]: 26.3 µM | TGI [24]: 35.7 µM | TGI [25]: 53 µM | TGI [26]: 32.4 µM | TGI [27]: 28.7 µM | TGI [28]: 29.8 µM | TGI [29]: > 23 µM | TGI [30]: 25.9 µM | TGI [31]: 34.8 µM | TGI [32]: 29.8 µM | TGI [33]: 41.5 µM | TGI [34]: 28.9 µM | TGI [35]: 41.4 µM | TGI [36]: 13.6 µM | TGI [37]: 36.7 µM | TGI [56]: 29.3 µM | TGI [57]: 33.9 µM | TGI [38]: 27.1 µM | TGI [39]: 18.1 µM | TGI [40]: 30.7 µM | TGI [41]: 5.6 µM | TGI [42]: 24.1 µM | TGI [58]: 32.6 µM | TGI [43]: 38.8 µM | TGI [59]: 33.5 µM | TGI [44]: 30.8 µM | TGI [45]: 40.9 µM | TGI [46]: 16.8 µM | TGI [47]: 63.3 µM | TGI [48]: 62.8 µM | TGI [49]: 51.7 µM | TGI [50]: 40 µM | TGI [51]: 30.8 µM | TGI [52]: 51.1 µM | TGI [53]: > 59.1 µM | TGI [54]: 24.5 µM

COc1cc(S(=O)(=O)Nc2nc(-c3ccc(N=Cc4cccs4)cc3)cs2)ccc1Cl
TGI [55]: 49.6 µM | TGI [1]: > 100 µM | TGI [2]: > 100 µM | TGI [3]: > 100 µM | TGI [4]: 57 µM | TGI [5]: > 100 µM | TGI [6]: > 100 µM | TGI [7]: > 100 µM | TGI [8]: > 100 µM | TGI [9]: > 100 µM | TGI [11]: > 100 µM | TGI [12]: > 100 µM | TGI [13]: > 100 µM | TGI [14]: > 100 µM | TGI [15]: > 100 µM | TGI [16]: > 100 µM | TGI [17]: > 100 µM | TGI [18]: > 100 µM | TGI [19]: > 100 µM | TGI [20]: > 100 µM | TGI [21]: > 100 µM | TGI [22]: > 100 µM | TGI [23]: > 100 µM | TGI [24]: > 100 µM | TGI [25]: > 100 µM | TGI [26]: > 100 µM | TGI [27]: > 100 µM | TGI [28]: > 100 µM | TGI [29]: > 100 µM | TGI [30]: > 100 µM | TGI [31]: > 100 µM | TGI [32]: > 100 µM | TGI [33]: 64.1 µM | TGI [34]: 48.7 µM | TGI [35]: > 100 µM | TGI [36]: 98.7 µM | TGI [37]: > 100 µM | TGI [56]: > 100 µM | TGI [57]: > 100 µM | TGI [38]: > 100 µM | TGI [39]: 78.6 µM | TGI [40]: > 100 µM | TGI [41]: > 100 µM | TGI [42]: > 100 µM | TGI [58]: > 100 µM | TGI [43]: > 100 µM | TGI [59]: > 100 µM | TGI [44]: > 100 µM | TGI [45]: > 100 µM | TGI [46]: > 100 µM | TGI [47]: > 100 µM | TGI [48]: > 100 µM | TGI [49]: > 100 µM | TGI [50]: > 100 µM | TGI [51]: > 100 µM | TGI [52]: > 100 µM | TGI [53]: > 100 µM | TGI [54]: > 100 µM
